Test results taken from paper PMC6838013, “Insight Into Mosquito GnRH-Related Neuropeptide Receptor Specificity Revealed Through Analysis of Naturally Occurring and Synthetic Analogs of This Neuropeptide Family” (Frontiers in Endocrinology, 2019).
pEC50: −log10 of the molar value. “And” between values parts separate entries of the source, which are not always exact repeats. Equal entries are not always repeated. Non-standard residues stand in square brackets, D forms with d. Residues, ends and D or L forms follow the SMILES beside them. pGlu = O=C1CC[C@@H](C(=O)O)N1

Columns and labels:
[1] = system: A. aegypti ACP receptor (AedaeACPR); assay: Calcium bioluminescence (aequorin) reporter assay of heterologously expressed ACPR; type: cell-based, Aedes aegypti
Description: Therefore, to improve the bioluminescent signal linked to calcium mobilization following receptor activation, which was required in order to provide greater signal to noise ratio when testing ACP analogs with substitutions leading to intermediate levels of activation of the ACPR, we created a new mammalian expression construct using the dual promoter vector, pBudCE4.1. Specifically, we utilized a cloning strategy as reported previously ([41]) whereby the ACPR was inserted into the multiple cloning site (MCS) downstream of the CMV promoter in pBudCE4.1 using the sense primer SalI-KozakACPR, 5′-[…]-3′ and anti-sense primer XbaI-ACPR, 5′-[…]-3′, which directionally inserted the ACPR within the MCS downstream of the CMV promoter. Secondly, the murine homolog (Gα15) of the human promiscuous G protein, Gα16, which indiscriminately couples a wide variety of GPCRs to calcium signaling ([42]) was inserted into the MCS downstream of the EF1-α promoter in pBudCE4.1 using the sense primer NotI-Gα15, 5′-[…]-3′ and anti-sense primer BglII-Gα15, 5′-[…]-3′, which directionally inserted the murine Gα15 within the MCS downstream of the EF1-α promoter.
(§1) Functional activation of the AedaeACPR and AedaeAKHR-IA receptors was carried out following a previously described mammalian cell culture system involving a Chinese hamster ovary (CHO)-K1 cell line stably expressing aequorin ([43]). Cells were grown in DMEM:F12 media containing 10% heat-inactivated fetal bovine serum (Wisent, St. Bruno, QC), 200 μg/mL Geneticin, 1x antimycotic-antibiotic to approximately 90% confluency, and were transiently transfected using either Lipofectamine LTX with Plus Reagent or Lipofectamine 3000 transfection systems (Invitrogen, Burlington, ON) following manufacturer recommended DNA to transfection reagent ratios. Cells were detached from the culture flasks at 48 h post-transfection using 5 mM EDTA in Dulbecco's PBS. Cells were then prepared for the receptor functional assay following a procedure described previously ([27]). Stocks of peptide analogs of ACP and AKH were used for preparation of serial dilutions all of which were prepared in assay media (0.1% BSA in DMEM:F12) and loaded in quadruplicates into 96-well white luminescence plates (Greiner Bio-One, Germany). Cells were loaded with an automatic injector into each well of the plate containing different peptide analogs at various concentrations as well as negative control (assay media alone) and positive control wells (50 μM ATP). Immediately after injection of the cells, luminescence was measured for 20 s using a Synergy 2 Multi-Mode Microplate Reader (BioTek, Winooski, VT, USA). Calculations, including determination of EC50 values, were conducted in GraphPad Prism 7.02 (GraphPad Software, San Diego, USA) from dose-response curves from 3 to 4 independent biological replicates.

[2] = target: A. aegypti AKHR-IA receptor (AKHR-IA) (Aedes aegypti, UniProt A0A2P1A8S4); assay: Calcium bioluminescence (aequorin) reporter assay of heterologously expressed AKHR-IA; type: cell-based; conditions: for Fold-reduction in activity relative to Aedae-AKH: AKHR-IA in CHO-K1 aequorin cells, relative to native Aedae-AKH; for pEC50: CHO-K1 cells stably expressing aequorin, transiently transfected with AKHR-IA (pcDNA3.1+), luminescence 20 s, 3 to 4 independent biological replicates, ND = no determined EC50 due to minimal or no detectable activity up to 10 μM
Sequence of A. aegypti AKHR-IA receptor (AKHR-IA) (A0A2P1A8S4 1-410): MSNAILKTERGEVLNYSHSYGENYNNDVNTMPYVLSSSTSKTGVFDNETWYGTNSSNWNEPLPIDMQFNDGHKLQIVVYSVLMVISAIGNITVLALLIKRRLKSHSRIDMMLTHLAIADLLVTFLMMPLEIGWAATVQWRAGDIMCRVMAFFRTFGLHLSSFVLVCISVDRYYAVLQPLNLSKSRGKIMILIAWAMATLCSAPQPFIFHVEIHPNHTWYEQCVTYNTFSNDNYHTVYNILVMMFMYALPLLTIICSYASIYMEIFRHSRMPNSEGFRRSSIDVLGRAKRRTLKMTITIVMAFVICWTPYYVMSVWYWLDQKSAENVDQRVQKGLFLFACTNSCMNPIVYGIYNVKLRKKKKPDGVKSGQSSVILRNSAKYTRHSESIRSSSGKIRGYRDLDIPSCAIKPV
Procedure: For each construct, an overnight liquid culture of clonal recombinant bacteria containing the appropriate plasmid construct was grown in antibiotic-containing LB media and used to isolate midiprep DNA using the PureLink Midiprep kit (Life Technologies, Burlington, ON). Midiprep samples were then quantified and sent for sequencing as described previously ([26], [27]).
as §1

Compound | Activity on ACPR at the highest tested dose, in words ([1]; 10 μM, Figure 2, ANOVA and Tukey post-test) | Fold-reduction in activity relative to AedaeACP ([1]; ACPR in CHO-K1 aequorin cells, relative to native Aedae-ACP) | Fold-reduction in activity relative to Aedae-AKH [2] | pEC50 [2] | Improved efficacy on AKHR-IA relative to native mosquito AKH ([2]; relative to Aedae-AKH) | Fold-reduction in activity relative to Aedae-AKH ([2]; listed as V^2-Peram-CAH-II) [fold] | AKHR-IA activation at the highest tested concentration ([2]; 10 μM, luminescence relative to maximal response with 10^−5M Aedae-AKH)
CC(C)C[C@H](NC(=O)[C@@H]1CCC(=O)N1)C(=O)N[C@H](C(=O)N[C@@H](Cc1ccccc1)C(=O)N[C@H](C(=O)N1CCC[C@H]1C(=O)NCC(=O)N[C@@H](Cc1c[nH]c2ccccc12)C(=O)NCC(=O)N[C@@H](CCC(N)=O)C(N)=O)[C@@H](C)O)[C@@H](C)O [Bommo-AKH] ([pGlu]LTFTPGWGQ-NH2) | inactive | >1,000 fold | 11 fold and 10.9 fold | 7.63 | – | – | –
CC(C)C[C@H](NC(=O)[C@@H]1CCC(=O)N1)C(=O)N[C@@H](CC(N)=O)C(=O)N[C@@H](Cc1ccccc1)C(=O)N[C@H](C(=O)N1CCC[C@H]1C(=O)N[C@@H](CC(N)=O)C(=O)N[C@@H](Cc1c[nH]c2ccccc12)C(N)=O)[C@@H](C)O [Pyrap-AKH] ([pGlu]LNFTPNW-NH2) | – | – | 337 fold and 336.7 fold | 6.14 | – | – | –
CC(C)C[C@H](NC(=O)[C@@H]1CCC(=O)N1)C(=O)N[C@H](C(=O)N[C@@H](Cc1ccccc1)C(=O)N[C@H](C(=O)N1CCC[C@H]1C(=O)NCC(=O)N[C@@H](Cc1c[nH]c2ccccc12)C(N)=O)[C@@H](C)O)[C@@H](C)O [Tabat-AKH] ([pGlu]LTFTPGW-NH2) | – | – | 0.7 fold | 8.82 | ~ 30% and 30% | – | –
CC(C)[C@H](NC(=O)[C@@H]1CCC(=O)N1)C(=O)N[C@H](C(=O)N[C@@H](Cc1ccccc1)C(=O)N[C@H](C(=O)N1CCC[C@H]1C(=O)N[C@@H](CC(N)=O)C(=O)N[C@@H](Cc1c[nH]c2ccccc12)C(N)=O)[C@@H](C)O)[C@@H](C)O [V^2-PeramCAH-II] ([pGlu]VTFTPNW-NH2) | – | – | 68.8 fold | 6.83 | – | 69 | –
pQLTFTSS-amide [Lacol-AKH-7mer, C-terminally truncated synthetic analog based on an endogenous peptide from Laconobia oleracea] | – | – | – | – | – | – | ~ 7%
